Patent US10624910B2, “Thrombin-like enzyme for reducing a side effect of an anticancer drug” (priority 2007, dated 2020)
Marks after values point to notes of the source that are not given here.

Tests used:
Assay type in all cases: in vivo
male C57BL/6 mice [1] = test: Reducing effect of batroxobin on bone marrow suppression caused by cyclophosphamide; details: CPA 100 mg/kg i.p. (+ batroxobin 30 BU/kg i.p.) once every other day; after fourth administration (7 days)
From the text: (§1) The thrombin-like enzyme, batroxobin (hereinafter referred to as DF-521) was used, which is manufactured by Beijing Tobishi Pharmaceutical Co., Ltd. (Beijing, China) with a trade name of Dong Ling Di Fu.
The anticancer chug, cyclophosphamide (hereinafter referred to as CPA) was used, which is manufactured by Shanxi Powerdone Pharmaceutical Co., Ltd.
The laboratory animals, male C57BL/6 mice (weight: […] were divided into three groups: control group, cyclophosphamide group (CPA group), and cyclophosphamide+batroxobin group (CPA+DF-521 group), with five mice in one group. The control group was given physiological saline once every other day. The cyclophosphamide group was given an intraperitoneal dose of 100 mg/kg of cyclophosphamide once every other day. The cyclophosphamide+batroxobin group was given an intraperitoneal dose of 100 mg/kg of cyclophosphamide and 30 BU/kg of batroxobin simultaneously, once every other day. After the fourth administration (7 days after the first administration), blood was collected from the femoral artery under ether anesthesia using the EDTA anticoagulant, and the white blood cell count (WBC), red blood cell count (RBC), hemoglobin value (Hb), and platelet count (Plt) was measured.
The bone marrow nuclear cell count (BMNC) per femur of a mouse was measured by the following procedure. Bone marrow was sampled from 2 femora of a mouse, the marrow was flushed with 2 ml of physiological saline, and made the bone marrow cell suspension. Twenty μl of bone marrow cell suspension was put into […] of 3% acetic acid solution. After the red blood cells were destroyed, the hemocytometer was used for counting the BMNC count under the microscope. Then the BMNC count per femur was calculated.
The above-mentioned BMNC, WBC, RBC, Plt counts and Hb value are used as an evaluation index for bone marrow suppression caused by cyclophosphamide.

male C57BL/6 mice [2] = test: Reducing effect of batroxobin on lethal toxicity caused by adriamycin; details: ADM 3 mg/kg i.p. (+ batroxobin 30 BU/kg i.p.) once every other day, 18 times; 41th day after first dose
From the text: as §1
The anticancer drug, adriamycin (hereinafter referred to as ADM) was used, which is manufactured by Hualian Pharmaceutical Factory of Shanghai Pharmaceutical (Group) Co., Ltd.
The laboratory animals, male C57BL/6 mice (weight: 19-22 g) were divided into three groups: control group, adriamycin group (ADM group), and adriamycin+batroxobin group (ADM+DF-521 group), with 10 mice in each group. The control group was administered with physiological saline.
The adriamycin group was given an intraperitoneal dose (3 mg/kg) of adriamycin once every other day. The adriamycin+batroxobin group was given a simultaneous dosage of 3 mg/kg of adriamycin and 30 BU/kg of batroxobin intraperitoneally, once every other day. The drug administration was performed in total of 18 times. The experiment was terminated on the 41th day after the first dose administered. The number of deaths was totaled, and the survival rate was calculated from mortality rate.

C57BL/6 Mice = test: Reducing effect of batroxobin on bone marrow suppression caused by adriamycin; details: ADM 3 mg/kg i.p. (+ batroxobin 30 BU/kg i.p.) once every other day; after 9th administration
From the text: as §1
The anticancer drug, adriamycin (hereinafter referred to as ADM) was used, which is manufactured by Hualian Pharmaceutical Factory of Shanghai Pharmaceutical Group Co., Ltd.
The laboratory animals, C57BL/6 Mice (weight: 19-22 g) were divided into three groups: control group, adriamycin group (ADM group), and adriamycin+batroxobin (ADM+DF-521 group), with 5-10 mice (n=5 or 10) in one group. The control group was given physiological saline once every other day. The adriamycin group was given an intraperitoneal dose of 3 mg/kg of adriamycin once every other day. The adriamycin+batroxobin group was given an intraperitoneal doses of 3 mg/kg of adriamycin and 30 BU/kg of batroxobin simultaneously, once every other day. After the 9th administration, the experiment was terminated, and the blood was collected from the femoral artery under ether anesthesia using the EDTA anticoagulant. Then, the WBC, RBC counts and Hb value were measured.
Furthermore, the bone marrow nuclear cell (BMNC) count per femur of a mouse was measured with the following procedure. The bone marrow was sampled from 2 femora of a mouse, bone marrow was flushed with the 2 ml physiological saline, and made the bone marrow cell suspension. Twenty of marrow cell suspension was put into 380 μl of 3% acetic acid solution. After the red blood cells were destroyed, the hemocytometer was used for counting the BMNC count under the microscope. Then the BMNC count per femur was calculated.
The above-mentioned BMNC, RBC, WBC counts and Hb value were used as an evaluation index for bone marrow suppression caused by adriamycin.

[3] = test system: C57BL/6 male mice inoculated with B16-BL6 murine malignant melanoma cells; test: Reducing effect of batroxobin on cardiotoxicity caused by adriamycin (H&E histopathology of left ventricular myocardial tissue); details: batroxobin 20 BU/kg i.p. once a day and/or adriamycin 3 mg/kg i.p. once interval of 2 days; after 20 days
From the text: as §1
The anticancer drug, adriamycin (hereinafter referred to as ADM) was used, which is manufactured by Shenzhen Main Luck Pharmaceuticals Inc.
The laboratory animals, C57BL/6 male mice (weight: 16-18 g) were divided into 4 groups: 10 mice in the control group, 7 mice in the batroxobin group, 7 mice in the adriamycin group, and 7 mice in the adriamycin+batroxobin group. Mice from each group were inoculated with a dorsal right lateral subcutaneous injection of 3×10^6 B16-BL6 murine malignant melanoma cells in 0.3 ml of tumor cell suspension. After one day of tumor cell inoculation, the control group was given an intraperitoneal injuction of physiological saline once a day; the batroxobin group was given an intraperitoneal injection of batroxobin (20 BU/kg) once a day; the adriamycin group was given an intraperitoneal injection of adriamycin (3 mg/kg) once interval of 2 days; the adriamycin+batroxobin group was given an intraperitoneal injection of adriamycin (3 mg/kg) once interval of 2 days and an intraperitoneal injection of 20 BU/kg batroxobin once a day after administration of adriamycin. […]

male C57BL/6 mice [4] = test: Reducing effect of batroxobin on bone marrow suppression caused by cisplatin; details: DDP 0.8 mg/kg i.p. (+ batroxobin 30 BU/kg i.p.) once every other day; after 17th administration (33rd day)
From the text: as §1
The anticancer drug, cisplatin (hereinafter referred to as DDP) was used, which is manufactured by Yunnan Gejiu Biochemical Pharmaceutical Co., Ltd.
The laboratory animals, male C57BL/6 Mice (weight: 20-22 g) were divided into 3 groups: control group, cisplatin group (DDP group), and cisplatin+batroxobin group (DDP+DF-521 group); with 10 mice in one group. The control group was given physiological saline once every other day. The cisplatin group was given an intraperitoneal dose of 0.8 mg/kg of cisplatin once every other day. The cisplatin+batroxobin group was given an intraperitoneal dose of 0.8 mg/kg of cisplatin and 30 BU/kg of batroxobin simultaneously, once every other day. After the 17th administration (33rd day after the first administration), the experiment was terminated, blood was collected from the femoral artery under ether anesthesia using the anticoagulant EDTA, and the WBC, RBC, Plt counts and Hb value, were measured.
Furthermore the bone marrow nuclear cell (BMNC) count per femur of a mouse was measured by the following procedure. Bone marrow was sampled from 2 femora of a mouse, the bone marrow was flushed with the 2 ml physiological saline, and made bone marrow cell suspension. Twenty μl of marrow cell suspension was put into 380 μl of 3% acetic acid solution. After the red blood cells were destroyed, the hemocytometer was used for counting the BMNC count under the microscope. Then, the BMNC count per femur was calculated.
The above-mentioned BMNC, WBC, RBC, Plt counts and Hb value were used as an evaluation index for bone marrow suppression caused by cisplatin.

Rabbit (NW) = test: Acute toxicity of batroxobin (i.v.), rabbit
Description: (§2) The thrombin-like enzyme, batroxobin is used in the present agent. The acute toxicity (LD50 (BU/kg)) of batroxobin on mice, rats, rabbits and dogs is as follows in Table 1. The acute toxicity test was assessed by the intravenous administration of batroxobin.

Dog (mongrel) = test: Acute toxicity of batroxobin (i.v.), dog
Description: as §2

Mouse (ddy) = test: Acute toxicity of batroxobin (i.v.), mouse
Description: as §2

Rat (Wistar) = test: Acute toxicity of batroxobin (i.v.), rat
Description: as §2

## O=P1(N(CCCl)CCCl)NCCCO1 (stereo not shown) [CPA, cyclophosphamide]
Male C57BL/6 mice [1]
  BMNC: 2.4 ± 0.4 ×10^6/bone
  Hb: 98.8 ± 9.2 g/L
  Plt: 1081.6 ± 47.4 ×10^9/L
  RBC: 6.2 ± 0.5 ×10^12/L
  WBC: 0.8 ± 0.3 ×10^9/L

## COc1cccc2c1C(=O)c1c(O)c3c(c(O)c1C2=O)C[C@@](O)(C(=O)CO)C[C@@H]3O[C@H]1C[C@H](N)[C@H](O)[C@H](C)O1 [ADM, adriamycin]
Male C57BL/6 mice [2]
  Survival No/Total No: 4/10*
  survival rate %: (40%)
C57BL/6 Mice
  BMNC: 6.9 ± 1.6 ×10^6/bone
  Hb: 94.9 ± 30.5 g/L
  RBC: 6.6 ± 1.5 ×10^12/L
  WBC: 3.4 ± 0.7 ×10^9/L
[3]
  Pathological findings in left ventricular myocardial tissue (H&E) compared to control group: abnormalities were observed

## N.N.[Cl][Pt][Cl] [DDP, cisplatin]
Male C57BL/6 mice [4]
  BMNC: 11.3 ± 2.6 ×10^6/bone
  Hb: 121.6 ± 10.7 g/L
  Plt: 1059.2 ± 241.5 ×10^9/L
  RBC: 7.4 ± 0.8 ×10^12/L
  WBC: 6.1 ± 2.2 ×10^9/L

## batroxobin
Rabbit (NW)
  LD50 Value: >300 BU/kg
Dog (mongrel)
  LD50 Value: 190~208 BU/kg
Mouse (ddy)
  LD50 Value: 192~210 BU/kg
Rat (Wistar)
  LD50 Value: 105~110 BU/kg
[3]
  Pathological findings in left ventricular myocardial tissue (H&E) compared to control group: abnormalities were not observed
